Tests used:
[1] = Self-degradation of released drug derivative with aminal structure; format: physicochemical
topoisomerase I = molecular target: T1, topoisomerase I (Homo sapiens, UniProt P11387); details: compared with SN-38 and topotecan; cited from earlier work
T1 sequence (P11387 1-765): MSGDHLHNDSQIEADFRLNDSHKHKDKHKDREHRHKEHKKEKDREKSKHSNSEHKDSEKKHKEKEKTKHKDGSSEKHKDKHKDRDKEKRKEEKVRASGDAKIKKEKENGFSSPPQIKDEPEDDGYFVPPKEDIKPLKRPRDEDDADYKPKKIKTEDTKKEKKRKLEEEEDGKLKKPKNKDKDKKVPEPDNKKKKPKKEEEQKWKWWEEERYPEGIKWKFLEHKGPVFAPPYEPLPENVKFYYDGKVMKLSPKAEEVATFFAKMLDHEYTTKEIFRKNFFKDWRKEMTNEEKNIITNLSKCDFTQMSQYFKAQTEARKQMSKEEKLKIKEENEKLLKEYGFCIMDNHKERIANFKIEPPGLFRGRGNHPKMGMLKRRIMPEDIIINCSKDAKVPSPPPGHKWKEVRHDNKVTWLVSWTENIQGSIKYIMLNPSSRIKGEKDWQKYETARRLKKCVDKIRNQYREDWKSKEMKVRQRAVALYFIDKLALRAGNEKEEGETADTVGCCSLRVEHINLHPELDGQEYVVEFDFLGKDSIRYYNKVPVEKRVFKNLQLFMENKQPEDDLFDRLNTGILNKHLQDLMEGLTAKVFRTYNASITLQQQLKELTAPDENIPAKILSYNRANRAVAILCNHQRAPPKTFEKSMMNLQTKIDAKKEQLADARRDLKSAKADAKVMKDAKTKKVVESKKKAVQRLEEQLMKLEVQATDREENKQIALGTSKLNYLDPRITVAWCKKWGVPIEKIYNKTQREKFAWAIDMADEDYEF

various cancer cells = details: against various cancer cells; cited from earlier work
human tumor = human tumor subcutaneously transplanted mouse model; cited from earlier work
[2] = molecular target: T2, CHOK1 cells expressing human TROP2 (Homo sapiens, UniProt P09758); assay: FACS analysis of TINA1 antibody on TROP2-overexpressing cells; format: cell-based
T2 construct: expressed in transfected cells; host or cells: CHOK1
T2 sequence (P09758 27-323): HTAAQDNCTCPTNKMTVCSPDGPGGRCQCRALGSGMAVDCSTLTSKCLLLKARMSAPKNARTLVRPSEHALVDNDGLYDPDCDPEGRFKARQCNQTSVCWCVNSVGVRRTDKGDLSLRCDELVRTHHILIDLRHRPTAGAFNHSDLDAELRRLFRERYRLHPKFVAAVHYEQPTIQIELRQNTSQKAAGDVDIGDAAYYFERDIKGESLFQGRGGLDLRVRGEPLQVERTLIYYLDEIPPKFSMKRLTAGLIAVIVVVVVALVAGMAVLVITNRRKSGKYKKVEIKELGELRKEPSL
Description: Because the antigen of the TINA1 antibody was predicted to be TROP2 from the band pattern, overexpression analysis by gene transfer of cDNA was conducted without mass spectrometry. […] Similar FACS analysis was conducted using a lung cancer cell line PC14, a lung cancer cell line NCI-H322, a lung cancer cell line NCI-H2122, a lung cancer cell line LCAM1, a lung cancer cell line LC2/ad, a pancreatic cancer cell line MIAPaCa2, a pancreatic cancer cell line PK-1, a prostate cancer cell line PC3, a colorectal cancer cell line HCT116, a melanoma cell line A375, an ovarian cancer cell line SKOV3, a hematopoietic tumor cell line RPMI8226, a hematopoietic tumor cell line K562, PBMC (human peripheral blood mononuclear cells), and human platelet. All of the examined lung cancer cell lines were TROP2-positive, and PC3, PK1, and SKOV3 were positive as the cell lines except for the lung cancer ones. On the other hand, all of the normal blood cells were negative.

NCI-H322 cells = assay: Internalization activity and immunotoxin activity using DT3C; format: cell-based, human
Description: 4-1) Antibody internalization activity evaluation system A recombinant fusion protein DT3C was produced for the purpose of measuring internalization activity and immunotoxin activity of an antibody. This DT3C is a protein having a catalytic domain of diphtheria toxin (DT) and three antibody-binding regions of protein G. DT3C specifically binds to an Fc moiety of an antibody, is stable, and induces cell death by inhibiting protein synthesis when taken up into cells. By use of this system, the internalization effect of antibody and the cytocidal effect thereof by immunotoxin can be observed at the same time (Yamaguchi, M., Hamada, H., et al., Biochemical and Biophysical Research Communications 454 (2014) 600-603).
4 μg/mL of DT3C was added at 25 μL/well to a 96-well plate, further the culture supernatants of 11 hybridomas obtained by the method of Example 1 or a method equivalent thereto were each added at 25 μL/well to the plate, and the plate was incubated at room temperature for 30 minutes. […] After incubation for 1 hour in a CO2 incubator of 37° C., the number of live cells was measured using a microplate reader (OD450 to OD640, infinite 200, Tecan Trading AG).
Each diluted solution of DT3C (0, 0.004, 0.04, 0.4, 4, or 40 μg/mL) was added at 25 μL/well to a 96-well plate, then each antibody (40 μg/mL) was added at 25 μL/well to the plate, and the plate was incubated at room temperature for 30 minutes. […] After incubation for 1 hour in a CO2 incubator of 37° C., the number of live cells was measured using a plate reader (OD450 to OD640).
Anti-TROP2 antibodies TINA1 (immunogen: lung cancer line NCI-H322), KCL7A3 and KCL2D6 (immunogen: pancreatic cancer cell line KCL-MOH1), Pr1E11 and Pr8H10 (immunogen: prostate cancer cell line Pc-1), and NY16 and NY17 (immunogen: pancreatic cancer cell line PK-1) obtained by the method of Example 1 or a method equivalent thereto, and commercially available 77220 (R&D Systems Inc.) were evaluated for their internalization activity and immunotoxin activity in the same manner as in Example 4-3).

Molecule: CCC1(O)C(=O)OCc2c1cc1n(c2=O)Cc2c-1nc1cc(F)c(C)c3c1c2C(NC(=O)COCN)CC3 (centres unmarked) [NH2—CH2—O—CH2—C(═O)—(NH-DX)]
- stability of the aminal structure (self-degradation to HO—CH2—C(═O)—(NH-DX)) [1]: unstable

Molecule: CC[C@@]1(O)C(=O)OCc2c1cc1n(c2=O)Cc2c-1nc1cc(F)c(C)c3c1c2[C@@H](N)CC3 [exatecan, (1S,9S)-1-amino-9-ethyl-5-fluoro-2,3-dihydro-9-hydroxy-4-methyl-1H,12H-benzo[de]pyrano[3′,4′:6,7]indolizino[1,2-b]quinolin-10,13(9H,15H)-dione]
- inhibitory activity on topoisomerase I (topoisomerase I): higher than SN-38
- in vitro cytocidal activity (various cancer cells): higher in vitro cytocidal activity
- antitumor effect (human tumor): potent antitumor effect

B1: TINA1: antibody produced by the TROP2 hybridoma TINA1; mouse anti-TROP2 monoclonal antibody (antibody, listed as Mus musculus, V domains shown)
VH: QIQLVQSGPELKKPGETVRISCKASGYTFTTAGMQWVQKMPGKGLKWIGWINTHSGVPKYAEDFKGRFAFSLETSASTAYLQISNLKNEDTTTYFCARSGFGSSYWYFDVWGAGTAVTVSS
VL: DIVMTQSHKFMSTSVGDRVSITCKASQDVSTAVAWYQQKPGQSPKLLIYSASYRYTGVPDRFTGSGSGTAFTFTISSVQAEDLAVYYCQQHYITPLTFGAGTKLELKRA
- FACS response [2]: strong positive response
- internalization activity and immunotoxin activity (NCI-H322 cells; among the 8 anti-TROP2 antibodies, as Example 4-3, FIG. 12): strongest activity
- internalization activity and immunotoxin activity (NCI-H322 cells; antibody 40 μg/mL + DT3C 0-40 μg/mL, among antibodies against CD59, CD71, EGFR, EpCAM, TROP2, FIG. 11): strongest internalization activity and immunotoxin activity
- internalization activity and immunotoxin activity (NCI-H322 cells; hybridoma culture supernatant + DT3C 4 μg/mL, NCI-H322 cells, 3 days, FIG. 10): strong internalization activity and immunotoxin activity

Source: US20250257146A1, “ANTI-TROP2 ANTIBODY-DRUG CONJUGATE” (DAIICHI SANKYO COMPANY, LIMITED, priority 2013, published 2025)
